Results taken from patent publication US20050113317A1, “Combination of dehydroepiandrosterone or dehydroepiandrosterone-sulfate with a cromone for treatment of asthma or chronic obstructive pulmonary disease” (priority 2003, published 2005).
Several values for one entry are separate records, joined by “and”; a condition that tells them apart may be missing. Equal values may be shown once.

Columns and labels:
[1] = test system: HT-29 SF cells; experiment: Reversal of DHEA effect on cell cycle; format: cell-based, human; conditions: 25 FM DHEA
[2] = test system: Intracellular adenosine in various Rat Tissues; experiment: In vivo effect on adenosine levels in rat tissues
Method: Folinic acid (50 mg/kg) was administered intraperitoneally once daily for fourteen days. […] Hearts were removed from animals and flash frozen in liquid nitrogen with 10 s of death. Liver and lungs were removed en bloc and flash frozen with 30 s of death. Brain tissue was subsequently dissected.

[3] = test system: HT-29 SF cells; experiment: DHEA effect on cell cycle (flow cytometry); format: cell-based, human
[4] = HPLC analysis of drug degradation during jet milling; format: physicochemical; conditions: HPLC peak area vs unmilled standard; single- and double-pass
Method: Two vials (A; single-pass; 150 mg) and (B double-pass; 600 mg) of the micronized drug were available for determining drug degradation during jet milling micronization. […] The chromatographic peak area for the HPLC assay of the unmilled drug standard solution (10 mg/ml) gave a value of 23,427. […] The chromatographic peak areas for vials A and B were 11,979 and 11,677, respectively.

[5] = Short-term solution stability of DHEA-S nebulizer formulation; format: physicochemical; conditions: for appearance / solution stability: 10 mg/mL in 0.12% NaCl
Method: Aliquots of this solution are filled into clear glass vials and stored at RT (24-26° C.) and at 40° C. The samples are checked daily for DHEA-S content, DHEA content, and appearance. For each time point, duplicate samples are withdrawn and diluted from each vial. […] The study is stopped on day three. […] The solution should easily be stable for the day of reconstitution in a clinical trial. The following section describes the aerosol properties of this formulation.

[6] = Solubility remarks in text; format: physicochemical; conditions: 10^-4 M; mast cell assay conditions
[7] = Solubility of DHEA-S in NaCl media; format: physicochemical
Source text: Inhalation of pure water can produce a cough stimulus. […] The temperature effect is weaker at high NaCl concentrations.

[8] = test system: rat peritoneal mast cells; experiment: Mast cell degranulation (histamine secretion) after compound 48/80; format: cell-based
Method: We determined whether DHEA-sulfate would reduce mast cell degranulation after stimulation with compound 48/80 in rat peritoneal mast cells. Mast cell degranulation was quantified by measurement of histamine, a substance contained within the secretory granules of mast cells. The release of histamine is believed to parallel the release of leukotrienes and contribute to the respiratory dysfunction.
Freshly isolated rat peritoneal mast cells (2×10^5 cells) were pre-incubated for 5 min at 37° C. in a Balanced Salt Solution containing 150 mM NaCl (pH 7.4), 2.7 mM KCl, 0.9 mM CaCl2, 4 mM Na2HPO4, 2.7 mM KH2PO4, 1.75 mg/ml BSA and 0.1 μg/ml compound 48/80.
Following incubation, the mixture is cooled to 4° C. then centrifuged at 4500 rpm for 5 min. The supernatant is collected and mixed for 30 min at 4° C. with 5% TCA (trichloroacetic acid) to cause protein precipitation. After centrifugation at 9500×g for 15 min, the supernatant is collected and mixed with 0.25 M HCl. Thereafter, the samples are mixed with 2M NaOH and 0.2% OPT (ortho-phtalaldehyde) and incubated for 30 min at 4° C. in darkness, after which time the reaction is stopped by addition of 0.5 M H2SO4.
The amount of secreted histamine is quantified by measuring the fluorescence intensity at λex=360 nm and λem=450 nm using a spectrofluorimeter (GeminiXS, Molecular Devices). The results are expressed as a percent inhibition of control histamine secretion.

[9] = Solid-state stability with and without lactose at 50° C. (DHEA formed, HPLC); format: physicochemical; conditions: 1 week at 50° C.; neat and lactose blend
Source text: These conditions were used to stress the formulation in order to predict its long-term stability results. […] The primary degradant is DHEA. […] The materials on accelerated storage become more cohesive with time as evidenced by clumping during sample weighing for chemical analysis. […] This is a considerable disadvantage since lactose is the most commonly used inhalation excipient for dry powder formulations. Continuing with the virtually anhydrous form would mean limiting formulations to neat powder or undertaking more comprehensive safety studies to use a novel excipient.

[10] = Particle size of jet-milled / spray-dried DHEA-S (Malvern Mastersizer X, light microscope); format: physicochemical; conditions: two batches, visual examination of dispersions
Method: Approximately 1 g sample was passed through the jet mill, once, and approximately 2 g sample were passed through the jet mill twice. […] The resulting solution was sonicated for 3 minutes and appeared fully dispersed. The dispersed solutions were tested on a Malvern Mastersizer X with a small volume sampler (SVS) attachment. One sample of dispersed material was tested 5 times. The median particle size or D (v, 0.5) of unmilled material was 52.56 μm and the % RSD (relative standard deviation) was 7.61 for the 5 values. The D (v, 0.5) for a single pass through the jet mill was 3.90 μm and the % RSD was 1.27, and the D (v, 0.5) from a double pass through the jet mill 3.25 μm and the % RSD was 3.10.
The solution was spray-dried with a B-191 Mini Spray-Drier (Buchi, Flawil, Switzerland) with an inlet temperature of 55° C., outlet temperature of 40° C., at 100% aspirator, at 10% pump, nitrogen flow at 40 mbar and spray flow at 600 units. The spray-dried product was suspended in hexane and Span85 surfactant added to reduce agglomeration. The dispersions were sonicated with cooling for 3-5 minutes for complete dispersion and the dispersed solutions tested on a Malvern Mastersizer X with a Small Volume Sampler (SVS) attachment. […] Visual examination by light microscope of the dispersions of each batch confirmed that spray drying produced small respirable size particles. […]

[11] = 15° C., 20 mM Na^+, Ksp 1316 mM^2

## CC(C)CCC[C@@H](C)[C@H]1CC[C@H]2[C@@H]3CC=C4C[C@@H](O)CC[C@]4(C)[C@H]3CC[C@]12C [CH, cholesterol]
[1]; 72 hours
  prevention of DHEA-induced S phase depletion: no effect

## C[C@]12CC[C@H](O)CC1=CC[C@@H]1[C@@H]2CC[C@]2(C)C(=O)CC[C@@H]12 [DHEA, 3β-hydroxyandrost-5-en-17-one]
[2]; rat, in vivo
  effect on tissue adenosine: multi-organ depletion of adenosine
[3]; 200 μM DHEA, after 24 hours
  cell cycle distribution: more rapid increase in the percentage of cells in G1 and a decreased proportion of cells in S phase
[3]; 25, 50, 200 μM, 24-72 hours
  cell cycle effect: G1 block in HT-29 SF cells in a time-and dose-dependent manner

## C[C@@](O)(CCO)CC(=O)O [MVA, mevalonic acid]
[1]; 48 hours
  prevention of DHEA-induced S phase depletion: partially prevented this effect

## C[C@]12CC[C@H](OS(=O)(=O)[O-])CC1=CC[C@@H]1[C@@H]2CC[C@]2(C)C(=O)CC[C@@H]12.[Na+] [DHEA-S, sodium dehydroepiandrostenone sulfate]
[4]
  degradation during jet milling micronization: no detectable degradation
[5]; 7.5 mg/mL of DHEA-S in 0.12% NaCl, RT
  solution stability: stable for at least one day at RT
[5]; 40° C.
  appearance / solution stability: became cloudy after two days of storage
[5]; RT (24-26° C.)
  appearance / solution stability: slight precipitate is observed on the third day
[6]
  solubility under assay conditions: highly limited
[7]; [11]
  estimated DHEA-S solution concentration: 10.7 mg/mL
  estimated DHEA-S^− solution concentration: 27.5 mM
[7]; RT and refrigerated
  solubility as a function of NaCl concentration: decrease with NaCl concentration
[7]; RT, buffered vs unbuffered
  effect of 20 mM phosphate buffer on solubility: suppress the solubility
[8]; at 0.1 uM, percent inhibition of control histamine secretion
  maximal effect, inhibition of mast cell degranulation: 69.9%
[8]; rat peritoneal mast cells, compound 48/80
  inhibition of mast cell degranulation: concentration-dependent inhibition
[8]; rat peritoneal mast cells, compound 48/80, histamine secretion, read-out: EC50, inhibition of mast cell degranulation
  EC50: 0.17 µM

## C[C@]12CCC(=O)C=C1CC[C@@H]1[C@@H]2CC[C@@]2(C)[C@H]1CC[C@]2(C)O [Methyltestosterone]
[2]; rats, administered daily for two weeks
  effect on tissue adenosine: multi-organ depletion of adenosine

## CC12CCC3C(CC=C4CC(OS(=O)(=O)[O-])CCC43C)C1CCC2=O.[Na+] (centres unmarked) [DHEA-S Dihydrate]
[9]
  DHEA generated on storage: virtually no DHEA generated

## C[C@]12CC[C@H](OS(=O)(=O)[O-])CC1=CC[C@@H]1[C@@H]2CC[C@]2(C)C(=O)CC[C@@H]12.[Na+] [Anhydrous DHEA-S]
[10]
  mean particle size by light microscope: 2.4 μm and 2.0 μm
